Experimental data: patent US11596633B2, “SHP2 inhibitor compositions and methods for treating cancer” (Revolution Medicines, Inc., priority 2017, dated 2023)

Tests used:
[1] = system: phosphorylated RTKs in MDA-MB-231 cells; assay: Phospho-RTK array; type: cell-based; settings: MDA-MB-231 (KRAS G13D), 24 hours; selumetinib 5 μM, Compound A 1 and 5 μM
Description: To determine the effects of test article(s) on levels of phosphorylated RTKs, MDA-MB231 cells were seeded in 6-well plates and incubated overnight in full growth medium. Cells were treated for 24 hours with selumetinib (5 μM) or Compound A (1 and 5 μM) or left untreated (DMSO control). Lysates were generated using the lysis buffer provided with the kit (Phospho-RTK Array; R&D systems) with inclusion of a protease inhibitor cocktail. To control for protein concentration, total protein levels were quantified using BCA reagent kit. The levels of phospho-RTK were determined according to the manufacturer's instructions.

[2] = system: MIA-Pa-Ca-2 xenograft; assay: MIA-Pa-Ca-2 xenograft, Compound C with Abemaciclib (Example 8); type: in vivo, mice; settings: Compound C 30 mg/kg PO, Abemaciclib 50 mg/kg
Source text: Similar methods were used to evaluate efficacy of test articles in the pancreatic MiaPaca-2 KRas^G12C xenograft model. Balb/c nude mice (6-8 weeks old) were implanted with […] MiaPaca-2 tumor cells in 50% Matrigel subcutaneously in the flank. […] Administration of test articles and study design are as described above for H358 xenograft model.
(§1) The effects on tumor cell growth in vivo of another SHP2 inhibitor (Compound C) as a monotherapy or as a combination therapy with various Ras pathway inhibitors were evaluated in the NSCLC H358 KRas^G12C and MIA-Pa-Ca-2 xenograft models as described above in Example 1, except that the test article and vehicle formulation was (2% HPMC E-50, 0.5% Tween 80 in 50 mM Sodium Citrate Buffer, pH 4.0)+/− the inhibitor compound(s). […] Test compounds or vehicle control were administered by oral gavage daily. The study endpoint was defined as a mean tumor volume of 2000 mm^3 in the control group or 22 days post-dosing, whichever came first. Mean tumor volume data are reported for all animals that remained on study.

[3] = system: H358 KRas G12C xenograft; type: in vivo; settings: daily PO, Compound C 10 mg/kg, Trametinib 1 mg/kg, Cobimetinib 2.5 mg/kg, Ulixertinib 100 mg/kg
Description: The positive control, paclitaxel (30 mg/kg iv) in 5% ethanol, 5% cremophor EL, in 5% dextrose in deionized water was administered once every five days. Trametinib (1 mg/kg PO in 0.5% Methylcellulose+0.5% Tween 80) was administered by oral gavage daily. The study endpoint was defined as a mean tumor volume of 2000 mm^3 in the control group or 22 days, whichever came first. Mean tumor volume data are reported for all animals that remained on study.
as §1

[4] = system: RAS-GTP in NCI-H1838 cells; assay: RAS-GTP pulldown (Raf-RBD); type: cell-based; settings: NCI-H1838 (NF1 LOF), MEK inhibition by trametinib
Description: (§2) To determine the effects of small molecules on levels of activated RAS-GTPase, cell lines of interest were cultured under standard 2D culture conditions. Cells were seeded and following overnight incubation incubated at 37° C. with vehicle (DMSO) or test article(s). After an appropriate incubation period, cells were washed and cell lysis buffer added to prepare a cell lysate. The levels of Ras-GTP in the lysates were determined using affinity purification of a Raf-RBD (Ras binding domain of Raf)/GTP-Ras complex. In one approach, the Pierce Active Ras Pulldown and Detection Kit was used. Briefly, clarified lysates (500 μg total protein, quantified by BCA) were mixed with glutathione resin, which had been preincubated with GST-Raf-RBD. The mixture was vortexed and incubated at 4° C. for 1 hour with gentle rocking. The resin was washed three times with lysis buffer and bound Ras-GTP eluted by addition of 2× reducing sample buffer. Eluted proteins were separated by SDS-PAGE using a 4-15% Tris-glycine gel (BioRad). Proteins were transferred to a nitrocellulose membrane for western blot using an anti-Ras antibody (Thermofisher, 1:200) and a Licor IRDye-800 anti-mouse secondary antibody (1:20,000). The Licor Odyssey CLx was used for visualization.
as §2, with “resin” for “resin,”

[5] = system: NCI-H358 xenograft; assay: NCI-H358 xenograft, alone and with trametinib (Example 7); settings: trametinib 1 mg/kg
Description: The effects of a SHP2 inhibitor on tumor cell growth in vivo were evaluated in the NSCLC H358 xenograft model using female athymic nude mice (6-8 weeks old). Mice were implanted with H358 tumor cells in 50% Matrigel (1×10^7 cells/animal) subcutaneously in the flank. Once tumors reached an average size of 200 mm^3 mice were randomized to treatment groups and administration of test article or vehicle (50 mM acetate buffer, pH 4.6 containing 10% captisol, unless otherwise indicated) initiated. […] Body weight and tumor volume (using calipers) was measured every other day until study endpoints.

[6] = system: p-ERK1/2 in H1792 cells; assay: p-ERK AlphaLisa SureFire; type: cell-based; settings: H1792 cells (KRAS G12C)
Description: (§3) Cells were plated at ˜20×10^3 cells per well and following overnight incubation were washed with serum-free media. Cells were then incubated for one hour with increasing concentrations of the test article in serum-free media containing 0.2% BSA prior to termination of the assay and measurement of pERK levels in cellular lysates by AlphaLisa SureFire Ultra kit conducted according to the manufacturer's instructions.

[7] = system: p-ERK1/2 in H358 cells; assay: p-ERK AlphaLisa SureFire; type: cell-based, human; settings: H358 cells (KRAS G12C)
Description: as §3

[8] = system: p-ERK1/2 in Calu-1 cells; assay: p-ERK AlphaLisa SureFire; type: cell-based, human; settings: Calu-1 cells (KRAS G12C)
Description: as §3

For Cn1cnc2c(F)c(Nc3ccc(Br)cc3Cl)c(C(=O)NOCCO)cc21 [selumetinib, Selumetinib, reference compound], the “feedback-driven p-RTK hyperactivation” value [1] was “caused feedback-driven p-RTK hyperactivation”.
For CCN1CCN(Cc2ccc(Nc3ncc(F)c(-c4cc(F)c5nc(C)n(C(C)C)c5c4)n3)nc2)CC1 [Abemaciclib], the “tumor growth as a single agent compared to vehicle control” value [2] was “significant tumor growth inhibition”.
CC(=O)Nc1cccc(-n2c(=O)n(C3CC3)c(=O)c3c(Nc4ccc(I)cc4F)n(C)c(=O)c(C)c32)c1 [Trametinib, reference compound] was tested, and the “tumor growth as a single agent compared to vehicle control” value [3] was “significant tumor growth inhibition”, the “feedback-driven RAS-GTP accumulation” value [4] was “caused feedback-driven RAS-GTP accumulation” and the “tumor growth as compared to the vehicle control” value ([5]; single agent, Compound B 10 and 30 mg/kg) was “significant tumor growth inhibition”. For the same molecule, the “tumor growth inhibition, TGI” value [5] was 79%.
In the case of O=C(c1ccc(F)c(F)c1Nc1ccc(I)cc1F)N1CC(O)([C@@H]2CCCCN2)C1 [Cobimetinib], the “tumor growth as a single agent compared to vehicle control” value [3] is reported as “significant tumor growth inhibition”.
In the case of CC(C)Nc1cc(-c2c[nH]c(C(=O)N[C@H](CO)c3cccc(Cl)c3)c2)c(Cl)cn1 [Ulixertinib], the “tumor growth as a single agent compared to vehicle control” value [3] is reported as “significant tumor growth inhibition”.
For C=CC(=O)N1CC(N2CCN(C(=O)CNc3cc(C4(C)CC4)c(Cl)cc3O)CC2)C1 [ARS-853, reference compound], the “inhibition of p-ERK1/2 levels” value [6] was “sensitive”, the “inhibition of p-ERK1/2 levels” value [7] was “sensitive” and the “inhibition of p-ERK1/2 levels” value [8] was “sensitive”.
